Laboratory results: patent US8202886B2, “Small molecule E2F inhibitor” (H. Lee Moffitt Cancer Center and Research Institute, Inc., priority 2008, dated 2012)

Tests used:
E2F4-deficient MEFs = details: earlier work of the inventors (Ma et al., 2004); cited from earlier work
[1] = test system: 8226-s, 8226-dox40 and 8226-MR20; experiment: PARP cleavage western in drug sensitive and resistant 8226 lines; assay type: cell-based, human; details: 24 hours; 10 μM cisplatin or 10, 20 or 40 μM HLM006474
Method: Cells were collected 24 hours post drug exposure and extracts subjected to western blotting using antibodies to the indicated proteins. Cleavage of PARP indicates apoptosis.

CC[C@H](CO)Nc1nc(NCc2ccccc2)c2ncn(C(C)C)c2n1 [roscovitine]
sensitivity of E2F4-deficient MEFs to other drugs (E2F4-deficient MEFs): more sensitive

COc1cc([C@@H]2c3cc4c(cc3[C@@H](O[C@@H]3O[C@@H]5CO[C@@H](C)O[C@H]5[C@H](O)[C@H]3O)[C@H]3COC(=O)[C@H]23)OCO4)cc(OC)c1O [VP16, etoposide]
sensitivity of E2F4-deficient MEFs to other drugs (E2F4-deficient MEFs): more sensitive

CC(C)(C)c1cnc(CSc2cnc(NC(=O)C3CCNCC3)s2)o1 [SNS-032]
sensitivity of E2F4-deficient MEFs to other drugs (E2F4-deficient MEFs): more sensitive

N.N.[Cl][Pt][Cl] [cisplatin, reference compound]
sensitivity of E2F4-deficient MEFs to other drugs (E2F4-deficient MEFs): more sensitive
PARP cleavage (apoptosis) in sensitive versus resistant lines [1]: Minimal PARP cleavage

CN1CC[C@H](c2c(O)cc(O)c3c(=O)cc(-c4ccccc4Cl)oc23)[C@H](O)C1 [flavopiridol]
sensitivity of E2F4-deficient MEFs to other drugs (E2F4-deficient MEFs): more sensitive
